Patent publication US8962630B2, “Pyrrolopyrimidine compounds and their uses” (Novartis AG, priority 2008, dated 2015)
Read-outs that look alike come from different tables or passages of the source.

Tests used:
Format in all cases: biochemical
CDK2/cyclin A = CDK2/cyclin A (Homo sapiens (Human), UniProt P24941); test: CDK2/Cyclin A enzymatic activity assay (IMAP-FP)
CDK4/cyclin D1 = CDK4/cyclin D1 (Homo sapiens (Human), UniProt P11802); test: CDK4/Cyclin D1 enzymatic activity assay (Lance TR-FRET)
CDK4/cyclin D1, sequence (P11802 whole entry): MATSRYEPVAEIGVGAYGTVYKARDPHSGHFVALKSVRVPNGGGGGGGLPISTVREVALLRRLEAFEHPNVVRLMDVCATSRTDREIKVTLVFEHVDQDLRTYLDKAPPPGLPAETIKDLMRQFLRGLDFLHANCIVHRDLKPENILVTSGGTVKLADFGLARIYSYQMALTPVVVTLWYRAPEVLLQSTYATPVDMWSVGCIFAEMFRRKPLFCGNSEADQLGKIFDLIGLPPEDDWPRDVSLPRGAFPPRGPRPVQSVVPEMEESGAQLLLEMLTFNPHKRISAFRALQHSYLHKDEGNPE
CDK4/cyclin D1, sequence (P24385 whole entry partner): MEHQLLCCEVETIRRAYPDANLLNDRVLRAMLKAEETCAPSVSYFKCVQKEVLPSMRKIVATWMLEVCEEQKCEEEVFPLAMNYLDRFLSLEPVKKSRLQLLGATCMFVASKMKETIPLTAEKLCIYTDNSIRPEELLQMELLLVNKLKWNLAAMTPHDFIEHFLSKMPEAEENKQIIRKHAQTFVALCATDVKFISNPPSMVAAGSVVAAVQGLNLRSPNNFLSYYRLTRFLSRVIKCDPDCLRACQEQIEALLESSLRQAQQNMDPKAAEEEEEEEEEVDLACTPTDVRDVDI
How it was run: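 IC50 from a TR-FRET endpoint read of phospho-pRb(S780) after EDTA quench. Reaction: 60 min, room temperature, 3 μM ATP, 175 nM pRb152 substrate, 0.3 nM Sf21-derived His6-CDK4/GST-cyclin D1, pH 7.5 HEPES with MgCl2/MnCl2, 2% DMSO, inhibitor 0.005-10 μM.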

CDK1/cyclin B = CDK1/cyclin B (Homo sapiens (Human), UniProt P06493); test: CDK1/Cyclin B enzymatic activity assay (IMAP-FP)
CDK1/cyclin B, sequence (P06493 whole entry, species assumed): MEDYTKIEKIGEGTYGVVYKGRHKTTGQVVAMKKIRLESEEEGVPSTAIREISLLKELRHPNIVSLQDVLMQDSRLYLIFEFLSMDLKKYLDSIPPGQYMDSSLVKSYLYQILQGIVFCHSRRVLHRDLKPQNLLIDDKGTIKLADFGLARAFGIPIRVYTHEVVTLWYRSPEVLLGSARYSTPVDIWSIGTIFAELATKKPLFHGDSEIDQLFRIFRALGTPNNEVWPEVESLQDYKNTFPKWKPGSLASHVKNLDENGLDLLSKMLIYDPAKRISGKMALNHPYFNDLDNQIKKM
CDK1/cyclin B, sequence (P14635 whole entry partner, species assumed): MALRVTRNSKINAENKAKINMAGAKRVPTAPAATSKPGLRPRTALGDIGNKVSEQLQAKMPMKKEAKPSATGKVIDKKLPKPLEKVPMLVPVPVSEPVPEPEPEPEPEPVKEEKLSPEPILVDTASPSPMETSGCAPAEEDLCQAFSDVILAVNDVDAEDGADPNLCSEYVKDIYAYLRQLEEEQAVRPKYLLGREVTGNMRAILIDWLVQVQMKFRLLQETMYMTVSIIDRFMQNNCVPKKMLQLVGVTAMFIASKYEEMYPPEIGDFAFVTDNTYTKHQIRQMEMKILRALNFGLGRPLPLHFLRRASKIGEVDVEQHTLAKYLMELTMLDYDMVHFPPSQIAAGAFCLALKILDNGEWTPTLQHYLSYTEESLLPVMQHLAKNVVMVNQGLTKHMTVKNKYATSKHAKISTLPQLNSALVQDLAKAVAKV
Text: A 384-well microtiter IMAP-FPT™ (Molecular Devices Trade Mark Technology) endpoint assay was used for CDK1/cyclin B kinase activity measurements. The same assay was used for IC50 determination of small molecule inhibitors.

[1] = Table 2, 3 μM ATP, read-out: CDK4
[2] = Table 2, 20 μM ATP, read-out: CDK1

SMILES	IC50 (CDK2/cyclin A; Table 2, read-out: CDK2)	IC50 (CDK4/cyclin D1; [1])	IC50 (CDK1/cyclin B; [2])	IC50 (CDK2/cyclin A; Table 4, read-out: IC50 (μM) CDK2)	IC50 (CDK4/cyclin D1; Table 4, read-out: IC50 (μM) CDK4)	IC50 (CDK1/cyclin B; Table 4, read-out: IC50 (μM) CDK1)
O=C(c1cc2cnc(Nc3ccc(N4CCNCC4)cc3)nc2n1C1CCCC1)N1CCC1 [Example 201, reference compound]				10.3 µM	0.11 µM	7.5 µM
CN(C)C(=O)c1cc2cnc(Nc3ccc(C(=O)N4CCN(CCO)CC4)cn3)nc2n1C1CCCC1 [Example 96, 7-Cyclopentyl-2-{5-[4-(2-hydroxy-ethyl)-piperazine-1-carbonyl]-pyridin-2-ylamino}-7H-pyrrolo[2,3-d]pyrimidine-6-carboxylic acid dimethylamide]	> 15 µM	0.01 to 0.1 µM	> 15 µM			
CN(C)C(=O)c1cc2cnc(Nc3ccc(CN4CCNCC4)cn3)nc2n1C1CCCC1 [Example 42, 7-Cyclopentyl-2-(5-piperazin-1-ylmethyl-pyridin-2-ylamino)-7H-pyrrolo[2,3-d]pyri-midine-6-carboxylic acid dimethylamide]	> 15 µM	0.01 to 0.1 µM	> 15 µM			
CN(C)C(=O)c1cc2cnc(Nc3ccc(N4CCNC(C)(C)C4)cn3)nc2n1C1CCCC1 [Example 72, 7-Cyclopentyl-2-[5-(3,3-dimethyl-piperazin-1-yl)-pyridin-2-ylamino]-7H-pyrrolo[2,3-d]pyrimidine-6-carboxylic acid dimethylamide]	> 15 µM	0.01 to 0.1 µM	> 15 µM			
CN(C)C(=O)c1cc2cnc(Nc3ccc(N4CCN(C(=O)C5CCCCC5)CC4)cn3)nc2n1C1CCCC1 [Example 23, 2-[5-(4-Cyclohexanecarbonyl-piperazin-1-yl)-pyridin-2-ylamino]-7-cyclopentyl-7H-pyrrolo[2,3-d]pyrimidine-6-carboxylic acid dimethylamide]	> 15 µM	0.01 to 0.1 µM	> 15 µM			
CN(C)C1CCN(c2ccc(Nc3ncc4cc(C#N)n(C5CCCC5)c4n3)nc2)CC1 [Example 47, 7-Cyclopentyl-2-((4-dimethylaminopiperidin)-1-yl-pyridin-2-ylamino)-7H-pyrrolo[2,3-d]pyrimidine-6-carbonitrile]	8.3 µM	0.001 to 0.01 µM	2.6 µM			
C[C@@H]1CN(Cc2ccc(Nc3ncc4cc(C(=O)N(C)C)n(C5CCCC5)c4n3)nc2)C[C@H](C)N1 [Example 75, 7-Cyclopentyl-2-[5-((3S,5R)-3,5-dimethyl-piperazin-1-ylmethyl)-pyridin-2-ylamino]-7H-pyrrolo[2,3-d]pyrimidine-6-carboxylic acid dimethylamide]	> 15 µM	0.01 to 0.1 µM	> 15 µM			
CN(C)C(=O)c1cc2cnc(Nc3ccc(N4CCN(C5CCCC5)CC4)cn3)nc2n1C1CCCC1 [Example 79, 7-Cyclopentyl-2-[5-(4-cyclopentyl-piperazin-1-yl)-pyridin-2-ylamino]-7H-pyrrolo[2,3-d]pyrimidine-6-carboxylic acid dimethylamide]	> 15 µM	0.01 to 0.1 µM	> 15 µM			
CN(C)C(=O)c1cc2cnc(Nc3ccc(C4CCNCC4)cn3)nc2n1C1CCCC1 [Example 52, 7-Cyclopentyl-2-(1′,2′,3′,4′,5′,6-hexahydro-[3,4]bipyridinyl-6-ylamino)-7H-pyrrolo[2,3-d]pyrimidine-6-carboxylic acid dimethylamide]	> 15 µM	0.01 to 0.1 µM	> 15 µM			
CN(C)C(=O)c1cc2cnc(Nc3ccc(N4CCN(CCO)CC4)nn3)nc2n1C1CCCC1 [Example 37, 7-Cyclopentyl-2-{6-[4-(2-hydroxy-ethyl)-piperazin-1-yl]-pyridazin-3-ylamino}-7H-pyrrolo[2,3-d]pyrimidine-6-carboxylic acid dimethylamide]	> 15 µM	0.01 to 0.1 µM	> 15 µM			
CN(C)C(=O)c1cc2cnc(Nc3ccc(CN4CCC(O)CC4)cn3)nc2n1C1CCCC1 [Example 76, 7-Cyclopentyl-2-[5-(4-hydroxy-piperidin-1-ylmethyl)-pyridin-2-ylamino]-7H-pyrrolo[2,3-d]pyrimidine-6-carboxylic acid dimethylamide]	> 15 µM	0.01 to 0.1 µM	> 15 µM			
CN(C)C(=O)c1cc2cnc(Nc3cnc(N4CCNCC4)cn3)nc2n1C1CCCC1 [Example 48, 7-Cyclopentyl-2-(3,4,5,6-tetrahydro-2-[1,2′]bipyrazinyl-5′-ylamino)-7H-pyrrolo[2,3-d]pyrimidine-6-carboxylic acid dimethylamide]	> 15 µM	0.1 to 1 µM	> 15 µM			
CC(C)N1CCN(Cc2ccc(Nc3ncc4cc(C(=O)N(C)C)n(C5CCCC5)c4n3)nc2)CC1 [Example 62, 7-Cyclopentyl-2-[5-(4-isopropyl-piperazin-1-ylmethyl)-pyridin-2-ylamino]-7H-pyrrolo[2,3-d]pyrimidine-6-carboxylic acid dimethylamide]	> 15 µM	0.01 to 0.1 µM	> 15 µM			
COCCN1CCN(Cc2ccc(Nc3ncc4cc(C(=O)N(C)C)n(C5CCCC5)c4n3)nc2)CC1 [Example 77, 7-Cyclopentyl-2-{5-[4-(2-methoxy-ethyl)-piperazin-1-ylmethyl]-pyridin-2-ylamino}-7H-pyrrolo[2,3-d]pyrimidine-6-carboxylic acid dimethylamide]	> 15 µM	0.01 to 0.1 µM	> 15 µM			

More lines, now with the values ahead:

IC50 (CDK2/cyclin A; Table 2, read-out: CDK2)	IC50 (CDK4/cyclin D1; [1])	IC50 (CDK1/cyclin B; [2])	IC50 (CDK2/cyclin A; Table 4, read-out: IC50 (μM) CDK2)	IC50 (CDK4/cyclin D1; Table 4, read-out: IC50 (μM) CDK4)	IC50 (CDK1/cyclin B; Table 4, read-out: IC50 (μM) CDK1)	SMILES
> 15 µM	0.01 to 0.1 µM	> 15 µM				CC(C)OCCN1CCN(c2ccc(Nc3ncc4cc(C(=O)N(C)C)n(C5CCCC5)c4n3)nc2)CC1 [Example 95, 7-Cyclopentyl-2-{5-[4-(2-isopropoxy-ethyl)-piperazin-1-yl]-pyridin-2-ylamino}-7H-pyrrolo[2,3-d]pyrimidine-6-carboxylic acid dimethylamide]
> 15 µM	0.001 to 0.01 µM	> 15 µM				CC(C)CCCN1CCN(c2ccc(Nc3ncc4cc(C(=O)N(C)C)n(C5CCCC5)c4n3)nc2)CC1 [Example 68, 7-Cyclopentyl-2-{5-[4-(4-methyl-pentyl)-piperazin-1-yl]-pyridin-2-ylamino}-7H-pyrrolo[2,3-d]pyrimidine-6-carboxylic acid dimethylamide]
> 15 µM	0.01 to 0.1 µM	> 15 µM				CN(C)C(=O)c1cc2cnc(Nc3ccc(CN4CCN(CCO)CC4)cn3)nc2n1C1CCCC1 [Example 85, 7-Cyclopentyl-2-{5-[4-(2-hydroxy-ethyl)-piperazin-1-ylmethyl]-pyridin-2-ylamino}-7H-pyrrolo[2,3-d]pyrimidine-6-carboxylic acid dimethylamide]
> 15 µM	0.01 to 0.1 µM	> 15 µM				CN(C)C(=O)c1cc2cnc(Nc3ccc(N4CC[C@H](O)C4)cn3)nc2n1C1CCCC1 [Example 39, 7-Cyclopentyl-2-[5-((S)-3-hydroxy-pyrrolidin-1-yl)-pyridin-2-ylamino]-7H-pyrrolo[2,3-d]pyrimidine-6-carboxylic acid dimethylamide]
> 15 µM	0.01 to 0.1 µM	> 15 µM				CN(C)C(=O)c1cc2cnc(Nc3ccc(N4CCN(CCOCCO)CC4)cn3)nc2n1C1CCCC1 [Example 33, 7-Cyclopentyl-2-(5-{4-[2-(2-hydroxy-ethoxy)-ethyl]-piperazin-1-yl}-pyridin-2-ylamino)-7H-pyrrolo[2,3-d]pyrimidine-6-carboxylic acid dimethylamide]
> 15 µM	0.01 to 0.1 µM	> 15 µM				CC(=O)N1CCN(c2ccc(Nc3ncc4cc(C(=O)N(C)C)n(C5CCCC5)c4n3)nc2)CC1 [Example 7, 2-[5-(4-Acetylpiperazin-1-yl)-pyridin-2-ylamino]-7-cyclopentyl-7H-pyrrolo[2,3-d]pyrimidine-6-carboxylic acid dimethylamide]
> 15 µM	0.01 to 0.1 µM	> 15 µM				C[C@H]1CN(c2ccc(Nc3ncc4cc(C(=O)N(C)C)n(C5CCCC5)c4n3)nc2)CCN1 [Example 17, 7-Cyclopentyl-2-[5-((S)-3-methyl-piperazin-1-yl)-pyridin-2-ylamino]-7H-pyrrolo[2,3-d]pyrimidine-6-carboxylic acid dimethylamide]
> 15 µM	0.01 to 0.1 µM	> 15 µM				CN(C)C(=O)c1cc2cnc(Nc3ccc(N4CCN(CC(C)(C)O)CC4)cn3)nc2n1C1CCCC1 [Example 71, 7-Cyclopentyl-2-{5-[4-(2-hydroxy-2-methyl-propyl)-piperazin-1-yl]-pyridin-2-ylamino}-7H-pyrrolo[2,3-d]pyrimidine-6-carboxylic acid dimethylamide]
> 15 µM	0.01 to 0.1 µM	> 15 µM				CN(C)C(=O)c1cc2cnc(Nc3ccc(N4CCC(N)C4)cn3)nc2n1C1CCCC1 (racemic) [Example 13, Rac-2-[5-(3-Amino-pyrrolidin-1-yl)-pyridin-2-ylamino]-7-cyclopentyl-7H-pyrrolo[2,3-d]pyrimidine-6-carboxylic acid dimethylamide]
> 15 µM	0.01 to 0.1 µM	> 15 µM				CN(C)C(=O)c1cc2cnc(Nc3ccc(N4CCN(CC#N)CC4)cn3)nc2n1C1CCCC1 [Example 84, 2-[5-(4-Cyanomethyl-piperazin-1-yl)-pyridin-2-ylamino]-7-cyclopentyl-7H-pyrrolo[2,3-d]pyrimidine-6-carboxylic acid dimethylamide]
> 15 µM	0.01 to 0.1 µM	> 15 µM				C[C@H]1CN(c2ccc(Nc3ncc4cc(C(=O)N(C)C)n(C5CCCC5)c4n3)nc2)CCN1CCO [Example 82, 7-Cyclopentyl-2-{5-[(S)-4-(2-hydroxy-ethyl)-3-methyl-piperazin-1-yl]-pyridin-2-ylamino}-7H-pyrrolo[2,3-d]pyrimidine-6-carboxylic acid dimethylamide]
